Data published in BindingDB's records for doi:10.1021/acsmedchemlett.0c00107 (Usona Institute, 2020).

Target: T1, Estrogen receptor (Homo sapiens, UniProt P03372)
T1 sequence (P03372 whole entry): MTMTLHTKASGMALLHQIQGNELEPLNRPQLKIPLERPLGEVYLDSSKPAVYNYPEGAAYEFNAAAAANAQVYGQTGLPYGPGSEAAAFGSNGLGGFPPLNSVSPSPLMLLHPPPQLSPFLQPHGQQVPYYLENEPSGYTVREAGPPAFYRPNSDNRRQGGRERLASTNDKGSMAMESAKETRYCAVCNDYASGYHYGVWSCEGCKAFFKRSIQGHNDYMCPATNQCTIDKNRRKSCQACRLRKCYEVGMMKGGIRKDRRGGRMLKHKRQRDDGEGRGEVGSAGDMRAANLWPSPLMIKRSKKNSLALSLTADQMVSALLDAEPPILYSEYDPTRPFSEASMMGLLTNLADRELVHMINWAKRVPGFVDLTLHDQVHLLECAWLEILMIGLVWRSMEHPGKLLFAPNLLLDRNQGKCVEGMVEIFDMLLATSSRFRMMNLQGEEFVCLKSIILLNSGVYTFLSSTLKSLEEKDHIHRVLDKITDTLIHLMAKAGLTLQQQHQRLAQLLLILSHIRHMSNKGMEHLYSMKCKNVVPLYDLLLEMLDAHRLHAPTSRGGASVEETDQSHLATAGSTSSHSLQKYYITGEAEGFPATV
Assay: Induction of ERalpha protein degradation in human MCF7 cells assessed as reduction in ERalpha protein levels incubated for 24 hrs by In-cell western assay
Conditions: read-out: IC50 (the source's name)

DC50 [pM] | SMILES
2000 | O=C(NCCCCOc1ccc(C(=C2C3CC4CC(C3)CC2C4)c2ccc(O)cc2)cc1)[C@H]1CC[C@H](C(F)(F)F)CC1
500 | O=C(NCCCCOc1ccc(C(=C2C3CC4CC(C3)CC2C4)c2ccc(O)cc2)cc1)[C@H]1C[C@@H]2C=C[C@H]1C2
500 | CC(C)(C)OC(=O)N[C@@H](Cc1c[nH]c2ccccc12)C(=O)NCCCCOc1ccc(C(=C2C3CC4CC(C3)CC2C4)c2ccc(O)cc2)cc1
